How the values were obtained:
[1] = tested on: bedstraw; test: Test B pre/postemergence bedstraw; assay type: in vivo, Galium aparine
In short: (§1)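 Response is a visual 0-to-10 score relative to untreated plants, where 0 means no effect and 10 means complete control, taken twelve to sixteen days after application. Treatments went onto soil at planting and onto foliage of 1- to 4-leaf plants, using a surfactant-containing non-phytotoxic solvent.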

[2] = tested on: blackgrass; test: Test B pre/postemergence blackgrass; assay type: in vivo, Alopecurus myosuroides
In short: as §1

[3] = tested on: surinam grass; test: Test B pre/postemergence surinam grass; assay type: in vivo, Brachiaria decumbens
In short: as §1

[4] = tested on: cocklebur; test: Test B pre/postemergence cocklebur; assay type: in vivo, Xanthium strumarium
In short: as §1

[5] = tested on: corn; test: Test B pre/postemergence corn; assay type: in vivo, Zea mays
In short: as §1

[6] = tested on: crabgrass; test: Test B pre/postemergence crabgrass; assay type: in vivo, Digitaria sanguinalis
In short: as §1

[7] = tested on: giant foxtail; test: Test B pre/postemergence giant foxtail; assay type: in vivo, Setaria faberii
In short: as §1

[8] = tested on: morningglory; test: Test B pre/postemergence morningglory; assay type: in vivo, Ipomoea hederacea
In short: as §1

[9] = tested on: pigweed; test: Test B pre/postemergence pigweed; assay type: in vivo, Amaranthus retroflexus
In short: as §1

[10] = tested on: soybean; test: Test B pre/postemergence soybean; assay type: in vivo, Glycine max
In short: as §1

[11] = tested on: sugar beet; test: Test B pre/postemergence sugar beet; assay type: in vivo, Beta vulgaris
In short: as §1

[12] = tested on: wild oat; test: Test B pre/postemergence wild oat; assay type: in vivo, Avena fatua
In short: as §1

[13] = tested on: purple nutsedge; test: Test B pre/postemergence purple nutsedge; assay type: in vivo, Cyperus rotundus
In short: as §1

[14] = tested on: rice; test: Test B flood test rice; assay type: in vivo, Oryza sativa
In short: (§2)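 Read-out is a visual response score from 0 (no effect) to 10 (complete control), assigned by comparison with untreated controls. Treatment was applied at the 2-leaf stage, and plants stayed in the greenhouse for twelve to sixteen days before scoring.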

[15] = tested on: smallflower flatsedge; test: Test B flood test smallflower flatsedge; assay type: in vivo, Cyperus difformis
In short: as §2

[16] = tested on: duck salad; test: Test B flood test duck salad; assay type: in vivo, Heteranthera limosa
In short: as §2

[17] = Preemergence, Rate 62 g/ha, scale of 0 to 10 where 0 is no effect and 10 is complete control
[18] = Preemergence, Rate 250 g/ha, scale of 0 to 10 where 0 is no effect and 10 is complete control
[19] = Preemergence, Rate 500 g/ha, scale of 0 to 10 where 0 is no effect and 10 is complete control
[20] = Rate 62 g/ha, Postemergence, scale of 0 to 10 where 0 is no effect and 10 is complete control
[21] = Rate 125 g/ha, Postemergence, scale 0 to 10
[22] = Rate 125 g/ha, Preemergence, scale of 0 to 10 where 0 is no effect and 10 is complete control
[23] = Rate 500 g/ha, Postemergence, scale 0 to 10, 0 no effect, 10 complete control
[24] = Rate 62 g/ha, headed Pre-emergence (flood test species), scale 0 to 10 (0 no effect, 10 complete control)
[25] = Rate 125 g/ha, Pre-emergence, flood test species, scale 0 to 10 where 0 is no effect and 10 is complete control
[26] = Rate 250 g/ha, Pre-emergence, flood-test species, scale 0 to 10, 0 is no effect, 10 is complete control
[27] = Rate 500 g/ha, Pre-emergence, flood test species, scale 0 to 10 (0 no effect, 10 complete control)

## CC(C)N(C(=O)n1oc(=O)n([C@H](C)c2ccccc2)c1=O)c1ccc(F)cc1F [Compound 238]
[1]; [17]
  Bedstraw plant response rating: 0
[1]; [18]
  Bedstraw plant response rating: 0
[1]; [19]
  Plant response rating, Bedstraw: 3
[1]; [20]
  Bedstraw plant response rating: 0
[1]; [21]
  Bedstraw plant response rating: 2
[1]; [22]
  Bedstraw plant response rating: 0
[1]; Rate 250 g/ha, Postemergence
  Plant response rating (0 to 10; 0 is no effect, 10 is complete control), Bedstraw: 8
[1]; [23]
  Bedstraw plant response rating: 8
[2]; [17]
  Blackgrass plant response rating: 0
[2]; [18]
  Blackgrass plant response rating: 0
[2]; [19]
  Plant response rating, Blackgrass: 0
[2]; [20]
  Blackgrass plant response rating: 0
[2]; [21]
  Blackgrass plant response rating: 0
[2]; [22]
  Blackgrass plant response rating: 0
[2]; Rate 250 g/ha, Postemergence
  Plant response rating (0 to 10; 0 is no effect, 10 is complete control), Blackgrass: 0
[2]; [23]
  Blackgrass plant response rating: 5
[3]; [17]
  B. signalgrass plant response rating: 0
[3]; Preemergence, Rate 250 g/ha, scale 0 to 10, 0 is no effect, 10 is complete control
  B. signalgrass plant response rating: 0
[3]; [19]
  Plant response rating, B. signalgrass: 0
[3]; [20]
  B. signalgrass plant response rating: 0
[3]; Rate 125 g/ha, Postemergence, scale 0 (no effect) to 10 (complete control)
  B. signalgrass plant response rating: 0
[3]; [22]
  B. signalgrass plant response rating: 0
[3]; Rate 250 g/ha, Postemergence
  Plant response rating (0 to 10; 0 is no effect, 10 is complete control), B. signalgrass: 0
[3]; [23]
  B. signalgrass plant response rating: 0
[4]; [17]
  Cocklebur plant response rating: 0
[4]; [18]
  Cocklebur plant response rating: 0
[4]; [20]
  Cocklebur plant response rating: 0
[4]; [21]
  Cocklebur plant response rating: 0
[4]; [22]
  Cocklebur plant response rating: 0
[4]; Rate 250 g/ha, Postemergence
  Plant response rating (0 to 10; 0 is no effect, 10 is complete control), Cocklebur: 0
[4]; [23]
  Cocklebur plant response rating: 0
[5]; [17]
  Corn plant response rating: 0
[5]; [18]
  Corn plant response rating: 0
[5]; [19]
  Plant response rating, Corn: 0
[5]; [20]
  Corn plant response rating: 0
[5]; [21]
  Corn plant response rating: 0
[5]; [22]
  Corn plant response rating: 0
[5]; Rate 250 g/ha, Postemergence
  Plant response rating (0 to 10; 0 is no effect, 10 is complete control), Corn: 0
[5]; [23]
  Corn plant response rating: 0
[6]; [17]
  Crabgrass plant response rating: 2
[6]; [18]
  Crabgrass plant response rating: 10
[6]; [19]
  Plant response rating, Crabgrass: 10
[6]; [20]
  Crabgrass plant response rating: 0
[6]; [22]
  Crabgrass plant response rating: 6
[6]; Rate 250 g/ha, Postemergence
  Plant response rating (0 to 10; 0 is no effect, 10 is complete control), Crabgrass: 2
[6]; [23]
  Crabgrass plant response rating: 5
[7]; [17]
  Giant foxtail plant response rating: 5
[7]; [18]
  Giant foxtail plant response rating: 10
[7]; [19]
  Plant response rating, Giant foxtail: 10
[7]; [20]
  Giant foxtail plant response rating: 0
[7]; [22]
  Giant foxtail plant response rating: 6
[7]; Rate 250 g/ha, Postemergence
  Plant response rating (0 to 10; 0 is no effect, 10 is complete control), Giant foxtail: 0
[7]; [23]
  Giant foxtail plant response rating: 2
[8]; [17]
  Morningglory plant response rating: 0
[8]; [18]
  Morningglory plant response rating: 0
[8]; [19]
  Plant response rating, Morningglory: 3
[8]; [20]
  Morningglory plant response rating: 2
[8]; [22]
  Morningglory plant response rating: 0
[8]; Rate 250 g/ha, Postemergence
  Plant response rating (0 to 10; 0 is no effect, 10 is complete control), Morningglory: 3
[8]; [23]
  Morningglory plant response rating: 5
[9]; [17]
  Redroot pigweed plant response rating: 0
[9]; [18]
  Redroot pigweed plant response rating: 0
[9]; [19]
  Plant response rating, Redroot pigweed: 9
[9]; [20]
  Redroot pigweed plant response rating: 0
[9]; [22]
  Redroot pigweed plant response rating: 0
[9]; Rate 250 g/ha, Postemergence
  Plant response rating (0 to 10; 0 is no effect, 10 is complete control), Redroot pigweed: 0
[9]; [23]
  Redroot pigweed plant response rating: 5
[10]; [17]
  Soybean plant response rating: 0
[10]; [18]
  Soybean plant response rating: 0
[10]; [19]
  Plant response rating, Soybean: 0
[10]; [20]
  Soybean plant response rating: 1
[10]; [22]
  Soybean plant response rating: 0
[10]; [23]
  Soybean plant response rating: 2
[11]; [17]
  Sugarbeets plant response rating: 0
[11]; [18]
  Sugarbeets plant response rating: 3
[11]; [19]
  Plant response rating, Sugarbeets: 6
[11]; [20]
  Sugarbeets plant response rating: 0
[11]; [22]
  Sugarbeets plant response rating: 0
[11]; [23]
  Sugarbeets plant response rating: 0
[12]; [17]
  Wild oats plant response rating: 0
[12]; [18]
  Wild oats plant response rating: 0
[12]; [19]
  Plant response rating, Wild oats: 3
[12]; [20]
  Wild oats plant response rating: 0
[12]; [22]
  Wild oats plant response rating: 0
[12]; [23]
  Wild oats plant response rating: 0
[13]; [17]
  Nutsedge plant response rating: 0
[13]; [18]
  Nutsedge plant response rating: 0
[13]; [20]
  Nutsedge plant response rating: 0
[13]; [22]
  Nutsedge plant response rating: 0
[13]; Rate 250 g/ha, Postemergence
  Plant response rating (0 to 10; 0 is no effect, 10 is complete control), Nutsedge: 0
[13]; [23]
  Nutsedge plant response rating: 0
[14]; [24]
  Rice plant response rating: 0
[14]; [25]
  Rice plant response rating: 0
[14]; [26]
  Rice plant response rating: 0
[14]; [27]
  Rice plant response rating: 0
[15]; [24]
  S. Flatsedge plant response rating: 0
[15]; [25]
  S. Flatsedge plant response rating: 0
[15]; [26]
  S. Flatsedge plant response rating: 0
[15]; [27]
  S. Flatsedge plant response rating: 0
[16]; [24]
  Ducksalad plant response rating: 0
[16]; [25]
  Ducksalad plant response rating: 0
[16]; [26]
  Ducksalad plant response rating: 0
[16]; [27]
  Ducksalad plant response rating: 0

Source: US6737383B1, “Herbicidal oxadiazolidines” (priority 1999, dated 2004)
